The target in this assay is MCH receptor (Homo sapiens, UniProt Q99705). Kind of assay: Receptor binding assay with Radiolabelled MCH Ligand. To be noted: class by percent of control at 10^-7 M or IC50. Set-up: expressed in transfected cells; host or cells: 293 cells (human kidney, ATCC), transient transfection; crude membranes. The method in brief:
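Membranes from 293 cells transiently transfected with human MCH receptor competed test compounds against a radiolabelled MCH ligand in Tris-HCl pH 7.4 with MgCl2 and EDTA for 60–120 min at room temperature. Filtration and scintillation counting followed, with cold MCH defining nonspecific binding. IC50 came from logit-log plots of %B/B0, and Ki from the Cheng-Prusoff equation.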
MCH receptor, sequence (Q99705 whole entry): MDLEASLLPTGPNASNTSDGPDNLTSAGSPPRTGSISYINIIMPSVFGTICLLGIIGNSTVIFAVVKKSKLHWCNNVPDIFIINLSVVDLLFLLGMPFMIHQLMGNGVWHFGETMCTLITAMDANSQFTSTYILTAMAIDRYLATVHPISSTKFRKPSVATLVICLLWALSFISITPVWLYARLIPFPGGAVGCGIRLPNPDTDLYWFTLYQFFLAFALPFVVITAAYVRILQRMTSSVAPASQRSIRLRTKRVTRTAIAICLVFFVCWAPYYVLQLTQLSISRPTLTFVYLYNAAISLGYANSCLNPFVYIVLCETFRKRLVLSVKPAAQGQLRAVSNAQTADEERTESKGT
As for `Cc1nc(N[C@H]2CC[C@@H](NCC3CCCCC3)CC2)cc(N(C)C)n1` [compound 363], the class is given as 3 (Class 3: The value of percent of control at 10^−7 M was more than 60% or the value of IC50 was more than 200 nM.).

In the case of `Cc1nc(N[C@H]2CC[C@@H](NCCc3ccc(Cl)cc3)CC2)cc(N(C)C)n1` [compound 364], the class was 3 (Class 3: The value of percent of control at 10^−7 M was more than 60% or the value of IC50 was more than 200 nM.).

For the compound `Cc1nc(N[C@H]2CC[C@@H](NC(=O)OCC(C)(C)C)CC2)cc(N(C)C)n1` [compound 452], the class is given as 3 (Class 3: The value of percent of control at 10^−7 M was more than 60% or the value of IC50 was more than 200 nM.).

With `Cc1nc(N[C@H]2CC[C@@H](NC(=O)C3CCCC[C@@H]3NC(=O)c3ccccc3)CC2)cc(N(C)C)n1` (stereo partly shown) [compound 276], the class is 3 (Class 3: The value of percent of control at 10^−7 M was more than 60% or the value of IC50 was more than 200 nM.).

In the case of `Cc1nc(N[C@H]2CC[C@@H](NC(=O)c3ccc4c(c3)OCO4)CC2)cc(N(C)C)n1` [compound 237], the class is 3 (Class 3: The value of percent of control at 10^−7 M was more than 60% or the value of IC50 was more than 200 nM.).

With `Cc1nc(N[C@H]2CC[C@@H](NS(=O)(=O)c3ccc(Br)cc3OC(F)(F)F)CC2)cc(N(C)C)n1` [compound 501], the class is listed as 3 (Class 3: The value of percent of control at 10^−7 M was more than 60% or the value of IC50 was more than 200 nM.).

In the case of `COc1ccccc1OC(=O)N[C@H]1CC[C@@H](Nc2cc(N(C)C)nc(C)n2)CC1` [compound 456], the class was 3 (Class 3: The value of percent of control at 10^−7 M was more than 60% or the value of IC50 was more than 200 nM.).

Consider `Cc1nc(N[C@H]2CC[C@@H](NC(=O)c3ccco3)CC2)cc(N(C)C)n1` [compound 222], for which the class is 3 (Class 3: The value of percent of control at 10^−7 M was more than 60% or the value of IC50 was more than 200 nM.).

As for `Cc1nc(N[C@H]2CC[C@@H](NC(=O)C(C)c3ccc(C(=O)c4cccs4)cc3)CC2)cc(N(C)C)n1` (relative stereo) [compound 312], the class is listed as 3 (Class 3: The value of percent of control at 10^−7 M was more than 60% or the value of IC50 was more than 200 nM.).

`Cc1nc(N[C@H]2CC[C@@H](NC(=O)CC(C)S(=O)(=O)c3ccc(Cl)cc3)CC2)cc(N(C)C)n1` (relative stereo) [compound 281]: the class is 3 (Class 3: The value of percent of control at 10^−7 M was more than 60% or the value of IC50 was more than 200 nM.).

For `Cc1nc(N[C@H]2CC[C@@H](NC(=O)c3cccc4c3-c3ccccc3C4=O)CC2)cc(N(C)C)n1` [compound 247], the class is reported as 3 (Class 3: The value of percent of control at 10^−7 M was more than 60% or the value of IC50 was more than 200 nM.).

Consider `Cc1nc(N[C@H]2CC[C@@H](NC(=O)c3scc(S(=O)(=O)c4ccc(Cl)cc4)c3C)CC2)cc(N(C)C)n1` [compound 216], for which the class is recorded as 3 (Class 3: The value of percent of control at 10^−7 M was more than 60% or the value of IC50 was more than 200 nM.).

With `Cc1nc(N[C@H]2CC[C@@H](NCCOc3c(F)c(F)c(F)c(F)c3F)CC2)cc(N(C)C)n1` [compound 389], the class was 3 (Class 3: The value of percent of control at 10^−7 M was more than 60% or the value of IC50 was more than 200 nM.).

As to `Cc1nc(N[C@H]2CC[C@@H](NS(=O)(=O)/C=C/c3ccccc3)CC2)cc(N(C)C)n1` [compound 471], the class was 3 (Class 3: The value of percent of control at 10^−7 M was more than 60% or the value of IC50 was more than 200 nM.).

`Cc1nc(N[C@H]2CC[C@@H](NC(=O)C3=Cc4cc(Cl)ccc4OC3)CC2)cc(N(C)C)n1` [compound 271]: the class is recorded as 3 (Class 3: The value of percent of control at 10^−7 M was more than 60% or the value of IC50 was more than 200 nM.).

Consider `Cc1nc(N[C@H]2CC[C@@H](NC(=S)Nc3c(F)cc(Br)cc3Br)CC2)cc(N(C)C)n1` [compound 448], for which the class was 3 (Class 3: The value of percent of control at 10^−7 M was more than 60% or the value of IC50 was more than 200 nM.).

On to `Cc1nc(N[C@H]2CC[C@@H](NC(=O)Cc3ccc(OCc4ccccc4)cc3)CC2)cc(N(C)C)n1` [compound 204], for which the class was 3 (Class 3: The value of percent of control at 10^−7 M was more than 60% or the value of IC50 was more than 200 nM.).

Regarding `Cc1nc(N[C@H]2CC[C@@H](NC(=O)CSc3ccncc3)CC2)cc(N(C)C)n1` [compound 302], the class was 3 (Class 3: The value of percent of control at 10^−7 M was more than 60% or the value of IC50 was more than 200 nM.).

With `COc1cccc(S(=O)(=O)N[C@H]2CC[C@@H](Nc3cc(N(C)C)nc(C)n3)CC2)c1` [compound 493], the class is 3 (Class 3: The value of percent of control at 10^−7 M was more than 60% or the value of IC50 was more than 200 nM.).

On to `Cc1nc(N[C@H]2CC[C@@H](NC(=O)Oc3cccc(C(F)(F)F)c3)CC2)cc(N(C)C)n1` [compound 454], for which the class is 3 (Class 3: The value of percent of control at 10^−7 M was more than 60% or the value of IC50 was more than 200 nM.).

Regarding `Cc1nc(N[C@H]2CC[C@@H](NC(=O)C3c4ccccc4Oc4ccccc43)CC2)cc(N(C)C)n1` [compound 327, N-(cis-4-{[6-(dimethylamino)-2-methylpyrimidin-4-yl]amino}cyclohexyl)-9H-xanthene-9-carboxamide], the class is 3 (Class 3: The value of percent of control at 10^−7 M was more than 60% or the value of IC50 was more than 200 nM.).

For `COc1ccc2c(c1)C(CC(=O)N[C@H]1CC[C@@H](Nc3cc(N(C)C)nc(C)n3)CC1)CC2=O` (relative stereo) [compound 290], the class was 3 (Class 3: The value of percent of control at 10^−7 M was more than 60% or the value of IC50 was more than 200 nM.).

In the case of `COc1ccc(Oc2ccc([N+](=O)[O-])cc2CN[C@H]2CC[C@@H](Nc3cc(N(C)C)nc(C)n3)CC2)cc1` [compound 377], the class is recorded as 3 (Class 3: The value of percent of control at 10^−7 M was more than 60% or the value of IC50 was more than 200 nM.).

For `Cc1nc(N[C@H]2CC[C@@H](NC(=O)c3cccnc3Sc3ccccc3)CC2)cc(N(C)C)n1` [compound 266], the class is reported as 3 (Class 3: The value of percent of control at 10^−7 M was more than 60% or the value of IC50 was more than 200 nM.).

For `Cc1nc(N[C@H]2CC[C@@H](NCc3ccc(F)cc3C(F)(F)F)CC2)cc(N(C)C)n1` [compound 394], the class is 3 (Class 3: The value of percent of control at 10^−7 M was more than 60% or the value of IC50 was more than 200 nM.).

Consider `Cc1nc(N[C@H]2CC[C@@H](NC(=O)Cc3ccc(Cl)cc3)CC2)cc(N(C)C)n1` [compound 213], for which the class is recorded as 3 (Class 3: The value of percent of control at 10^−7 M was more than 60% or the value of IC50 was more than 200 nM.).

For the compound `Cc1nc(N[C@H]2CC[C@@H](NC(=O)Nc3c(C)noc3-c3ccccc3)CC2)cc(N(C)C)n1` [compound 433], the class is on record as 3 (Class 3: The value of percent of control at 10^−7 M was more than 60% or the value of IC50 was more than 200 nM.).

Regarding `Cc1nc(N[C@H]2CC[C@@H](NC(=O)CCCCCCCCCCc3ccccc3)CC2)cc(N(C)C)n1` [compound 301], the class is on record as 3 (Class 3: The value of percent of control at 10^−7 M was more than 60% or the value of IC50 was more than 200 nM.).

Take `Cc1nc(N[C@H]2CC[C@@H](NC(=O)c3cccc4c3-c3ccc([N+](=O)[O-])cc3C4)CC2)cc(N(C)C)n1` [compound 308]: the class is 3 (Class 3: The value of percent of control at 10^−7 M was more than 60% or the value of IC50 was more than 200 nM.).

For the compound `Cc1nc(N[C@H]2CC[C@@H](NC(=S)NCC(c3ccccc3)c3ccccc3)CC2)cc(N(C)C)n1` [compound 434], the class is given as 3 (Class 3: The value of percent of control at 10^−7 M was more than 60% or the value of IC50 was more than 200 nM.).

In the case of `Cc1ccc(-c2cc(C(=O)N[C@H]3CC[C@@H](Nc4cc(N(C)C)nc(C)n4)CC3)cs2)cc1` [compound 288], the class is listed as 3 (Class 3: The value of percent of control at 10^−7 M was more than 60% or the value of IC50 was more than 200 nM.).

Regarding `COC(=O)c1ccccc1S(=O)(=O)N[C@H]1CC[C@@H](Nc2cc(N(C)C)nc(C)n2)CC1` [compound 481], the class is recorded as 3 (Class 3: The value of percent of control at 10^−7 M was more than 60% or the value of IC50 was more than 200 nM.).

In the case of `Cc1nc(N[C@H]2CC[C@@H](NC(=O)COc3ccc(Cl)cc3)CC2)cc(N(C)C)n1` [compound 209], the class was 3 (Class 3: The value of percent of control at 10^−7 M was more than 60% or the value of IC50 was more than 200 nM.).

For the compound `Cc1nc(N[C@H]2CC[C@@H](NC(=O)Oc3ccc(Br)cc3)CC2)cc(N(C)C)n1` [compound 455, 4-bromophenyl (cis-4-{[6-(dimethylamino)-2-methylpyrimidin-4-yl]amino}cyclohexyl)carbamate], the class is 3 (Class 3: The value of percent of control at 10^−7 M was more than 60% or the value of IC50 was more than 200 nM.).

With `Cc1nc(N[C@H]2CC[C@@H](NC(=O)c3ccccc3CCc3ccccc3)CC2)cc(N(C)C)n1` [compound 305], the class is recorded as 3 (Class 3: The value of percent of control at 10^−7 M was more than 60% or the value of IC50 was more than 200 nM.).

As to `Cc1ccc(C(=O)CC(Sc2ccc(Cl)cc2)C(=O)N[C@H]2CC[C@@H](Nc3cc(N(C)C)nc(C)n3)CC2)cc1` (relative stereo) [compound 310], the class is listed as 3 (Class 3: The value of percent of control at 10^−7 M was more than 60% or the value of IC50 was more than 200 nM.).

`Cc1nc(N[C@H]2CC[C@@H](NS(C)(=O)=O)CC2)cc(N(C)C)n1` [compound 478]: the class is on record as 3 (Class 3: The value of percent of control at 10^−7 M was more than 60% or the value of IC50 was more than 200 nM.).
